# In the supplement of paper PMC8882468:
# System: HCI-016 (organoid from a triple-negative breast cancer xenograft)
# Test: CTG-3D luminescence at 96 h relative to day-0 seeding control (ratio to day 0); higher = more growth / less cytotoxicity; PDxO 3D drug screen, 96 h, CTG-3D normalised to day-0 seeding control.
# Conditions: 100 µM; days in culture: 190
row,Compound,CTG-3D luminescence at 96 h
1,C=CC(=O)N1CCC[C@@H](n2nc(-c3ccc(Oc4ccccc4)cc3)c3c(N)ncnc32)C1 [ibrutinib],-0.00814
2,CN(Cc1cnc2nc(N)nc(N)c2n1)c1ccc(C(=O)N[C@@H](CCC(=O)O)C(=O)O)cc1 [methotrexate],1.52
3,CC1(C)CCC(c2ccc(Cl)cc2)=C(CN2CCN(c3ccc(C(=O)NS(=O)(=O)c4ccc(N[C@H](CCN5CCOCC5)CSc5ccccc5)c(S(=O)(=O)C(F)(F)F)c4)cc3)CC2)C1 [navitoclax],0.0887
4,NC(=O)c1cccc2cn(-c3ccc([C@@H]4CCCNC4)cc3)nc12 [niraparib],-0.105

# Same assay, conditions: 100 µM; days in culture: 199
row,Compound,CTG-3D luminescence at 96 h
1,C[C@H](NC(=O)CCC(F)(F)F)C(=O)N[C@@H]1C(=O)N(CCO)c2ncccc2-c2ccccc21 [crenigacestat],1.73
2,COc1cccc2c1C(=O)c1c(O)c3c(c(O)c1C2=O)C[C@@](O)(C(=O)CO)C[C@@H]3O[C@H]1C[C@H](N)[C@H](O)[C@H](C)O1 [doxorubicin],0.0264
3,C[C@]12CC[C@@H]3c4ccc(O)cc4C[C@@H](CCCCCCCCC[S+]([O-])CCCC(F)(F)C(F)(F)F)[C@H]3[C@@H]1CC[C@@H]2O (stereo partly drawn) [fulvestrant],1.44
4,Nc1ccn([C@@H]2O[C@H](CO)[C@@H](O)C2(F)F)c(=O)n1 [gemcitabine],0.0387
5,C=CC(=O)N1CCC[C@@H](n2nc(-c3ccc(Oc4ccccc4)cc3)c3c(N)ncnc32)C1 [ibrutinib],-0.00558
6,CN(Cc1cnc2nc(N)nc(N)c2n1)c1ccc(C(=O)N[C@@H](CCC(=O)O)C(=O)O)cc1 [methotrexate],1.26
7,CC1(C)CCC(c2ccc(Cl)cc2)=C(CN2CCN(c3ccc(C(=O)NS(=O)(=O)c4ccc(N[C@H](CCN5CCOCC5)CSc5ccccc5)c(S(=O)(=O)C(F)(F)F)c4)cc3)CC2)C1 [navitoclax],0.0061
8,NC(=O)c1cccc2cn(-c3ccc([C@@H]4CCCNC4)cc3)nc12 [niraparib],-0.0141

# Same assay, conditions: 625 fM; days in culture: 153
row,Compound,CTG-3D luminescence at 96 h
1,C[C@H](NC(=O)CCC(F)(F)F)C(=O)N[C@@H]1C(=O)N(CCO)c2ncccc2-c2ccccc21 [crenigacestat],2.92
2,COc1cccc2c1C(=O)c1c(O)c3c(c(O)c1C2=O)C[C@@](O)(C(=O)CO)C[C@@H]3O[C@H]1C[C@H](N)[C@H](O)[C@H](C)O1 [doxorubicin],2.51
3,C[C@]12CC[C@@H]3c4ccc(O)cc4C[C@@H](CCCCCCCCC[S+]([O-])CCCC(F)(F)C(F)(F)F)[C@H]3[C@@H]1CC[C@@H]2O (stereo partly drawn) [fulvestrant],2.61
4,Nc1ccn([C@@H]2O[C@H](CO)[C@@H](O)C2(F)F)c(=O)n1 [gemcitabine],2.4
5,C=CC(=O)N1CCC[C@@H](n2nc(-c3ccc(Oc4ccccc4)cc3)c3c(N)ncnc32)C1 [ibrutinib],2.85
6,CN(Cc1cnc2nc(N)nc(N)c2n1)c1ccc(C(=O)N[C@@H](CCC(=O)O)C(=O)O)cc1 [methotrexate],2.86
7,CC1(C)CCC(c2ccc(Cl)cc2)=C(CN2CCN(c3ccc(C(=O)NS(=O)(=O)c4ccc(N[C@H](CCN5CCOCC5)CSc5ccccc5)c(S(=O)(=O)C(F)(F)F)c4)cc3)CC2)C1 [navitoclax],3.01
8,NC(=O)c1cccc2cn(-c3ccc([C@@H]4CCCNC4)cc3)nc12 [niraparib],2.67

# Same assay, conditions: 625 fM; days in culture: 172
row,Compound,CTG-3D luminescence at 96 h
1,C[C@H](NC(=O)CCC(F)(F)F)C(=O)N[C@@H]1C(=O)N(CCO)c2ncccc2-c2ccccc21 [crenigacestat],1.73
2,COc1cccc2c1C(=O)c1c(O)c3c(c(O)c1C2=O)C[C@@](O)(C(=O)CO)C[C@@H]3O[C@H]1C[C@H](N)[C@H](O)[C@H](C)O1 [doxorubicin],1.97
3,C[C@]12CC[C@@H]3c4ccc(O)cc4C[C@@H](CCCCCCCCC[S+]([O-])CCCC(F)(F)C(F)(F)F)[C@H]3[C@@H]1CC[C@@H]2O (stereo partly drawn) [fulvestrant],1.6
4,Nc1ccn([C@@H]2O[C@H](CO)[C@@H](O)C2(F)F)c(=O)n1 [gemcitabine],1.66
5,C=CC(=O)N1CCC[C@@H](n2nc(-c3ccc(Oc4ccccc4)cc3)c3c(N)ncnc32)C1 [ibrutinib],1.49
6,CN(Cc1cnc2nc(N)nc(N)c2n1)c1ccc(C(=O)N[C@@H](CCC(=O)O)C(=O)O)cc1 [methotrexate],1.71
7,CC1(C)CCC(c2ccc(Cl)cc2)=C(CN2CCN(c3ccc(C(=O)NS(=O)(=O)c4ccc(N[C@H](CCN5CCOCC5)CSc5ccccc5)c(S(=O)(=O)C(F)(F)F)c4)cc3)CC2)C1 [navitoclax],1.68
8,NC(=O)c1cccc2cn(-c3ccc([C@@H]4CCCNC4)cc3)nc12 [niraparib],1.66
